Literature values as cited in patent publication US20070088012A1, “Method of treating or preventing type-2 diabetes” (priority 2005, published 2007).

C[C@]12CC[C@H]3[C@@H](CCC4=CC(=O)CC[C@@]43C)[C@@H]1CC[C@@H]2O [Testosterone, testosterone]
bound to protein in the blood (circulating testosterone): 98% | share bound weakly to albumin (in men): 60% | share of the binding to sex hormone binding globulin (SHBG) (in men): approximately 40% | Metabolic Clearance Rate of Daily Testosterone (men): ^aMetabolic Clearance Rate of Daily Testosterone = 600 L/day | half-life of testosterone (reported in the literature): 10 to 100 min
